Calls of active or inactive are those of the source. The calls are words filed in the database; no cut-off is given here.
System: Mus musculus
Assay: Anti-inflammatory activity in TPA-induced mouse ear edema model assessed as inhibition of ear swelling at 0.6 to 1.4 umol applied topically on ear pretreated for 0.5 hrs followed by TPA application and measured after 7 hrs
Assay type: functional, organism-based

Compound	inhibition
COc1ccc2c(c1)c(CC(=O)O)c(C)n2C(=O)c1ccc(Cl)cc1	Active
CC(C)=CC/C=C(\C)C(O)Cc1cc(Br)cc(CC=C(C)C)c1O (stereo not drawn)	Active
CC(C)=CC/C=C(\C)C(O)Cc1cc(C(=O)O)cc(CC=C(C)C)c1O (stereo not drawn)	Active

From ChEMBL document CHEMBL4371090, “Chemical Synthesis Study Establishes the Correct Structure of the Potent Anti-Inflammatory Agent Myrsinoic Acid F” (J Nat Prod, 2019)
